Experimental data: US20140170768A1, “METHOD FOR MONITORING AND ASSESSING PITUITARY FUNCTION” (priority 2012, published 2014)

Assays:
Type in all cases: in vivo, human
[1] = system: patients with Cushing's disease; assay: Case One: ACTH and cortisol response to mifepristone in Cushing's disease patients after transphenoidal surgery, with or without radiation therapy
Description: (§1) Hypercortisolism can result from excessive pituitary ACTH secretion, ectopic ACTH synthesis, overproduction of cortisol by an adrenal tumor, and rarely by extra-hypothalamic CRH production. Identifying the cause of excess cortisol production relies upon the sensitivity of pituitary-dependent ACTH secretion to inhibition by pharmacologic doses of dexamethasone. Mifepristone is a glucocorticoid receptor antagonist approved for the treatment of hyperglycemia in patients with Cushing's disease. It was hypothesized that mifepristone, by blocking glucocorticoid receptors, could be used to identify patients with pituitary-dependent hypercortisolism (i.e., Cushing's disease), as ACTH and cortisol levels should rise in these patients following mifepristone administration, while ACTH and cortisol should not change following mifepristone administration in patients with ectopic ACTH or primary adrenal disease (i.e., Cushing's syndrome). To test this hypothesis, patients with either Cushing's Disease or Cushing's Syndrome were administered mifepristone and monitored under the following conditions. Data are presented relating to ACTH and cortisol responses in patients with Cushing's disease following transphenoidal surgery (n=18) (i.e., surgery in which surgical instruments are inserted into part of the brain by going through the nose and the sphenoid bone (a butterfly-shaped bone at the base of the skull) in order to remove tumors of the pituitary gland), patients with Cushing's disease following transphenoidal surgery and pituitary radiation therapy (n=23), and patients with Cushing's syndrome secondary to ectopic ACTH secretion (n=4). All patients received mifepristone 300 mg orally per day. ACTH and cortisol were measured as close to 8 AM as possible using a centralized laboratory (Quest Diagnostics, Collegeville, Pa.) 14 days after commencing mifepristone therapy.

[2] = system: patients with Cushing's syndrome secondary to ectopic ACTH secretion; assay: Case One: ACTH and cortisol response to mifepristone in Cushing's syndrome secondary to ectopic ACTH secretion
Description: as §1

[3] = system: person with recurrent Cushing's disease; assay: Case Two: ACTH and cortisol before and after a single mifepristone dose in recurrent Cushing's disease; conditions: 8 AM the morning following a 300 mg dose
Experimental: A person with recurrent Cushing's disease following pituitary surgery received a dose of 300 mg mifepristone. ACTH and cortisol were measured at 8 AM prior to and at 8 AM the morning following the dose of mifepristone.

[4] = system: person with adrenal insufficiency; assay: Case Three: ACTH and cortisol before and after a single mifepristone dose in adrenal insufficiency; conditions: 8 AM on the day after a single 300 mg dose
Experimental: ACTH and cortisol levels were low (ACTH<[…] and cortisol 2.4 micrograms/deciliter following exogenous ACTH administration). Based upon the finding of both low ACTH and cortisol, the cause of their adrenal insufficiency could be due to pituitary or to hypothalamic disease. […] ACTH and cortisol were measured at 8 AM on the day after they received a single dose of 300 mg mifepristone.

[5] = Cushing's disease after surgery and radiation therapy, Day 14 vs Day 0, mifepristone 300 mg/day orally
[6] = Cushing's disease, no radiation therapy, Day 14 vs Day 0, mifepristone 300 mg/day orally
[7] = Cushing's syndrome due to ectopic ACTH, Day 14 vs Day 0, NS

## CC#C[C@]1(O)CC[C@H]2[C@@H]3CCC4=CC(=O)CCC4=C3[C@@H](c3ccc(N(C)C)cc3)C[C@@]21C [mifepristone]
[1]; [5]
  ACTH s/p RT, Fold change: 1.40 ± .45
  cortisol s/p RT, Fold change: 1.24 ± .23
[1]; Cushing's disease no RT compared with s/p RT, mifepristone 300 mg/day, 14 days
  rise in ACTH and cortisol, no radiation therapy versus radiation therapy: significantly greater rise
[1]; [6]
  ACTH no RT, Fold change: 2.13 ± .96
  cortisol no RT, Fold change: 1.56 ± .6
[2]; [7]
  ACTH, Fold change: 1.75 ± .75
  cortisol, Fold change: 1.21 ± .79
[2]; patients with ectopic ACTH, mifepristone 300 mg/day, 14 days
  change in ACTH or cortisol following mifepristone therapy: substantially no significant change
[3]; pre-mifepristone 19.7
  cortisol Post-mifepristone: 32.9 micrograms/deciliter
[3]; pre-mifepristone 84
  ACTH Post-mifepristone: 129 picograms/ml plasma
[4]; pre-mifepristone 2.1
  cortisol Post-mifepristone: 11.3 micrograms/deciliter
[4]; pre-mifepristone <5
  ACTH Post-mifepristone: 13 picograms/ml plasma
